Marks after values point to notes of the source that are not given here.

In data set [1] the test system is LXRα mRNA. Put plainly: Real-time quantitative PCR of LXRα mRNA in foam cells. The note with it: 25 μM, rat foam cells. It is filed as cell-based. The procedure:
FIG. 5 provides effects of a ginsenoside compound K (C-K, 25 μM) and pyrrolidine dithiocarbamate (PDTC, 25 μM) on the foam cell LXRα mRNA expression. a: P<0.05, vs foam cell group. PDTC (25 μM) C-K (25 μM) (n=5).
(§1) (1) Material and reagents (the same as Examples 2).
(§2) (2) real-time quantitative PCR analysis (a reference method: Zhang Yiguan, Li Xiaohui, Fan Jishan, Zhang Haigang, Li Shuhui, Liao Wenqiang, Pang Yan, Jia Yi. Total panax notoginsenosides suppress atherosclerosis formation in rats by means of antiinflammatory and blood fat regulating action. Progress in Modern Biomedicine. 2007, 27 (11): 1601-1607).
(§3) Data was expressed as x±s, variance analysis were carried out between groups by SPSS 13.0 software.

Data set [2] concerns LXRα mRNA. Put plainly: Real-time quantitative PCR of LXRα mRNA in apo E−/− mouse aorta. The note with it: apo E−/− mice, 15 weeks. The data set is classed as in vivo. The procedure:
(§4) 80 healthy clean grade C57BL/6J apo E^−/^− mice of 10 weeks old, wherein male and female mice were fifty-fifty, weight 20-22 g, were breed and divided into individual cage in sterile laminar flow rack, allowing mice to freely drink water and get food. Mice were raised for 30 weeks by “Western Diet” (routine mouse feed +0.15% cholesterol +21% fat) high fat feed (^60cobalt sterilization radiation treatment), with raising conditions being SPF grade, room temperature maintained at 24° C., relative humidity of 50%, and lighting time of 7: 30-19: 30. Animal house was sterilized by ultraviolet lamp once every two days, in order to maintain sterile environment of laminar flow rack (establishment of animal model of atherosclerosis refers to reference: Barish G D, Atkins A R, Downes M, Olson P, Chong L W, Nelson M, Zou Y H, Hwang H S, Kang H J, Curtiss L, Evans R M, Lee C H. PPARδ regulates multiple proinflammatory pathways to suppress atherosclerosis. Proc Natl Acad Sci, 2008, 105 (11): 4271-4276.).
(§5) 5 mice of apo E^−/^− mice raised for 15 weeks were randomly selected and sacrificed, root of aorta of which was taken, and replication condition in AS model was observed by HE staining. The remaining mice were randomly divided into 5 groups as follows (n=15): […]
(§6) Above drugs were firstly solved in DMSO, then suspended in 0.5% carboxymethylcellulose solution, mixed homogeneously, and then were administered via gavage, once a day. Mice were weighted once a week, and ingestion amounts were recorded, and drug doses were adjusted according to weight, interfering for 15 weeks. […]
(§7) • blood fat assay: TC, TG, HDL-C, and LDL-C concentrations in serum were determined by applying Olympus Au2700 fully automatic biochemical appearance. • serum inflammatory markers assay: hs-CRP and sCD40L concentrations were determined by applying double antibody sandwich ELISA, in accordance with ELISA kit operating instruction (hs-CRP ELISA kit bought from Herrenberg company, Germany; sCD40L ELISA kit bought from Bender Medsystems company, Austria). • real-time quantitative PCR analysis was carried out on expression of CD36, perilipin, ABCA1, LXRα, MMP-9 and NF-κ B mRNA in apo E^−/^− mouse aorta (a reference method: Zhang Yiguan, Li Xiaohui, Fan Jishan, Zhang Haigang, Li Shuhui, Liao Wenqiang, Pang Yan, Jia Yi. […] 2007, 27 (11): 1601-1607)0 • morphology index image analysis: When slices were HE stained, under X40 fold ordinary light microscope, artery atherosclerosis plaque area of each incisal surface was determined by “Image Pro Plus 5.0” image analysis software. […] As to Masosn staining, aortic root collagen area (CA) was measured by “Image Pro Plus 5.0” image analysis software, and collagen vessel area ratio (CA/CVA) was calculated. […]

Data set [3] relates to ABCA1 mRNA. Put plainly: Real-time quantitative PCR of ABCA1 mRNA in apo E−/− mouse aorta. The data set is classed as in vivo. The note with it: apo E−/− mice, 15 weeks. Here is the method: as §4, §5, §6, §7
Data set [4] has as its system perilipin mRNA. Put plainly: Real-time quantitative PCR of perilipin mRNA in foam cells. The following applies: 25 μM, rat foam cells. It is filed as cell-based. Here is the method:
FIG. 2 provides effects of a ginsenoside compound K (C-K, 25 μM) and pyrrolidine dithiocarbamate (PDTC, 25 μM) on the foam cell perilipin mRNA expression.
a: P<0.05, vs. foam cells group. PDTC (25 μM) C-K (25 μM) (n=5).
as §1, §2, §3

In a further data set the test system is Kunming mice. Put plainly: Primary survey for toxicity in mice (gavage, 14 days). The data set is classed as in vivo. Here is the method:
40 Kunming mice (weight 18-22 g) were randomly divided into blank group of 20 mice, and ginsenoside compound K group of 20 mice, wherein male and female mice were fifty-fifty in each group. Fasting was carried out before trial for 16 h, allowing mice to freely drink water. Each mouse in drug group was gavaged with ginsenoside compound K (bought from) suspension according to a dose of 400 mg/kg, and blank group was gavaged equivalent amount of distilled water, with administration carried out once a day. Observation was carried out for 14 days after administration, wherein mice were weighted and animal responses were observed each day. The mice were weighted on fourteenth day of the trial, then were sacrificed and dissected, and tissue change of mice's major organs such as heart, liver, spleen, lung, and kidney were observed.
There was no phenomena such as abnormal crying, tremor, convulsion, dyskinesias, salivation, lacrimation, nose running, respiration difficulty, rapid heartbeat or slow heartbeat, diarrhea, constipation, intestinal tympanites in drug group mice; mice's hair was glossy; No mouse died in 14 days of administration.

The subject of data set [5] is perilipin mRNA. Nature of the data set: Real-time quantitative PCR of perilipin mRNA in apo E−/− mouse aorta. It is filed as in vivo. The note with it: apo E−/− mice, 15 weeks.
Description: A. model group: vehicle; B. ginsenoside compound K low dose group: ginsenoside compound K 12.5 mg/kg/day; C. ginsenoside compound K middle dose group: ginsenoside compound K 25.0 mg/kg/day; D. ginsenoside compound K high dose group: ginsenoside compound K 50.0 mg/kg/day; E. simvastatin control group: simvastatin 10.0 mg/kg/day.
Above drugs were firstly solved in DMSO, then suspended in 0.5% carboxymethylcellulose solution, mixed homogeneously, and then were administered via gavage, once a day. Mice were weighted once a week, and ingestion amounts were recorded, and drug doses were adjusted according to weight, interfering for 15 weeks. All the animal were sacrificed in 30th week.
Total RNA sample of root of aorta of apo E^−/^− mouse: Total RNA samples of root of aorta in each group mouse were extracted, and utilized for analysis of gene expression of various lipid metabolic factors, inflammatory factors, and nucleic transcription factors associated with AS plaque development.
Data set [6] has as its system ABCA1 mRNA. Nature of the data set: Real-time quantitative PCR of ABCA1 mRNA in foam cells. The note with it: 25 μM, rat foam cells. It is filed as cell-based. Here is the method:
FIG. 4 provides effects of a ginsenoside compound K (C-K, 25 μM) and pyrrolidine dithiocarbamate (PDTC, 25 μM) on the foam cell ABCA1 mRNA expression. a: P<0.05, vs foam cell group. PDTC (25 μM) C-K (25 μM) (n=5).
as §1, §2, §3

Setting [7] is: C-K high dose 50.0 mg/kg/day gavage.
Setting [8] is: C-K middle dose 25.0 mg/kg/day gavage.
[9] abbreviates: simvastatin 10.0 mg/kg/day gavage.

In the case of `CC(C)=CCC[C@](C)(OC1OC(CO)C(O)C(O)C1O)C1CC[C@]2(C)C1[C@H](O)CC1[C@@]3(C)CC[C@H](O)C(C)(C)C3CC[C@]12C` (stereo partly drawn) [C-K, 20-O-β-D-glucopyranosyl 20-(S)-protopanaxadiol], the “expression of LXRα mRNA in foam cells compared with model group” value in the data set on LXRα mRNA [1] is on record as “significantly up-regulated”. The “expression of LXRα mRNA in aorta (relative concentrations)” value in the data set with LXRα mRNA [2] (setting [7]) is listed as 1.36 ± 0.06^b; in the data set on LXRα mRNA [2] (C-K low dose 12.5 mg/kg/day gavage, model 0.87 ± 0.06) it was 1.26 ± 0.05^b; in the data set with LXRα mRNA [2] (setting [8]), 1.33 ± 0.05^b. The “expression of ABCA1 mRNA in aorta (relative concentrations)” value in the data set on ABCA1 mRNA [3] (setting [7]) was 1.34 ± 0.13^b; in the data set on ABCA1 mRNA [3] (C-K low dose 12.5 mg/kg/day gavage, model 0.65 ± 0.18) it was 1.08 ± 0.15^b; in the data set on ABCA1 mRNA [3] (setting [8]), 1.19 ± 0.18^b. In addition, the “expression of perilipin mRNA in foam cells compared with model group” value in the data set on perilipin mRNA [4] is listed as “significantly down-regulated”. Also, the “mice's response to acute toxicity” value with Kunming mice (Kunming mice, 400 mg/kg gavage) is “not obvious”. The “time until signs after gavage (eye closed, lying down, reduced autonomic activities, appetite descent) restored normal” value with Kunming mice (Kunming mice, 400 mg/kg gavage) is no more than 2 h. For the same compound, the “death of mice in 14 days of administration” value with Kunming mice (Kunming mice, 400 mg/kg gavage once a day, 14 days) was “No mouse died”. The “organs observed by naked eye after dissection” value with Kunming mice (mouse, in vivo, 400 mg/kg) is reported as “no abnormality in each organ”. Besides, the “expression of perilipin mRNA in aorta (relative concentrations)” value is listed as 0.51 ± 0.54^a in the data set with perilipin mRNA [5] (setting [7]); 0.68 ± 0.56^a with perilipin mRNA [5] (C-K low dose 12.5 mg/kg/day gavage, model 1.08 ± 0.06); 0.60 ± 0.49^a in the data set with perilipin mRNA [5] (setting [8]). In the data set on ABCA1 mRNA [6], the “expression of ABCA1 mRNA in foam cells compared with model group” value is on record as “significantly up-regulated”.
`CCC(C)(C)C(=O)O[C@H]1C[C@@H](C)C=C2C=C[C@H](C)[C@H](CC[C@@H]3C[C@@H](O)CC(=O)O3)[C@H]21` [simvastatin, reference compound]: the “expression of LXRα mRNA in aorta (relative concentrations)” value with LXRα mRNA [2] (setting [9]) came out at 0.95 ± 0.07. Besides, the “expression of ABCA1 mRNA in aorta (relative concentrations)” value in the data set on ABCA1 mRNA [3] (setting [9]) is on record as 0.78 ± 0.12^a. Besides, the “expression of perilipin mRNA in aorta (relative concentrations)” value in the data set with perilipin mRNA [5] (setting [9]) is recorded as 0.23 ± 1.32^b.

For the origin of these results see patent US20110212909A1, “Use of Ginsenoside Compound K in the Preparation of a Medicament for the Prevention and Treatment of Atherosclerosis” (priority 2008, published 2011).
